In US20230056935A1, “Compound, Antimicrobial Deodorant Composition Comprising Same, and Method for Producing Same” (LG Chem, Ltd., priority 2020, published 2023):

Tests used:
[1] = test system: E. coli (ATCC 25922); assay: Antibacterial property evaluation, bacterial growth inhibition (absorbance at 600 nm); assay type: cell-based; conditions: Escherichia coli, 16 hours at 35° C.; for Absorbance: 600 nm
Method: (§1) After introducing 1 mg to 200 mg of the compound to a nutrient broth culture medium (25 ml) inoculated with bacteria 3000±300 CFU/ml, the result is incubated for 16 hours at 35° C. in a shaking incubator to prepare a test culture medium. A control culture medium is prepared in the same manner except that the compound is not introduced in the test culture medium. For the test culture medium and the control culture medium, absorbance at a wavelength of 600 nm is measured using a UV-Vis spectrophotometer, and using the measured absorbance value, a bacterial growth inhibition rate (%) is calculated according to the following Mathematical Formula 1.
(§2) To a nutrient broth culture medium (25 ml) inoculated with Proteus mirabilis (ATCC 29906) or E. coli (ATCC 25922) 3000±300 CFU/ml, Compound 1 prepared in Preparation Example 1 was introduced in a content as described in the following Table 1, and the result was incubated for 16 hours at 35° C. in a shaking incubator to prepare a test culture medium. As a control, a control culture medium was prepared in the same manner except that the compound was not introduced in the test culture medium. For the test culture medium and the control culture medium, absorbance at a wavelength of 600 nm was measured using a UV-Vis spectrophotometer. Using the measurement results, a bacterial growth inhibition rate (%) was calculated according to the following Mathematical Formula 1.
(§3) (As: absorbance of test culture medium, A0: absorbance of control culture medium)

[2] = test system: Proteus mirabilis (ATCC 29906); assay: as above; assay type: cell-based; conditions: 16 hours at 35° C.; for Absorbance: 600 nm
Method: as §1, §2, §3

[3] = Deodorizing property evaluation (SPME, GC/MS peak area); conditions: total 80 mg
Method: To a test solution including the compound in 1 phr to 20 phr with respect to a total weight of 80 mg of a super absorbent polymer and the compound, 20 mL of a malodorous solution is introduced, isovaleraldehyde is adsorbed using a solid-phase microextraction method, and a GC/MS peak area of the adsorbed isovaleraldehyde is analyzed through a GC/MS analysis. For a control solution prepared in the same manner except that the compound is not introduced in the test solution, a GC/MS peak area of isovaleraldehyde is analyzed in the same manner, and, using the GC/MS peak area values of the test solution and the control solution, a deodorization rate is calculated according to the following Mathematical Formula 2.
Compound 1 prepared in Preparation Example 1 was introduced to a vial in a content as described in the following Table 2, and after introducing a super absorbent polymer (LG Chem., GS-301N) thereto so that a total content of the super absorbent polymer and Compound 1 becomes 80 mg, a malodorous solution (20 mL) was introduced thereto to prepare a test solution. As the malodorous solution, a solution in which diacetyl (242 ug/mL), isovaleraldehyde (49 ug/mL), dimethyl disulfide (30 ug/mL), dimethyl trisulfide (26 ug/mL) and p-cresol (2508 ug/mL) are mixed was 1/1000 diluted using an aqueous sodium chloride solution (0.9% by weight) and used. Volatile substances generated in the test solution was adsorbed using a solid-phase microextraction method (SPME), and through a GC/MS analysis, GC/MS peak areas of the adsorbed malodorous substances (diacetyl, isovaleraldehyde, dimethyl disulfide, dimethyl trisulfide and p-cresol) were each analyzed. For a control solution prepared in the same manner except that Compound 1 was not included, peak areas of the malodorous substances were analyzed in the same manner, and deodorization rates thereof were each calculated according to the following Mathematical Formula 2.
(Cs: GC/MS peak areas of malodorous substances test solution, C0: GC/MS peak areas of malodorous substances of control solution)

[4] = content 20 mg in 25 ml nutrient broth
[5] = content 50 mg in 25 ml nutrient broth
[6] = content 100 mg in 25 ml nutrient broth
[7] = 1 phr of Compound 1 with super absorbent polymer
[8] = 2 phr of Compound 1 with super absorbent polymer
[9] = 5 phr of Compound 1 with super absorbent polymer
[10] = 8 phr of Compound 1 with super absorbent polymer
[11] = 10 phr of Compound 1 with super absorbent polymer

SMILES: C=CC(=O)OCCC1CCCCN1C(=O)OC(C)CC (stereo not shown) [Compound 1]
- Bacterial Growth Inhibition Rate (%) [1, 4]: 62.9%
- Absorbance [1, 4]: 0.063
- Bacterial Growth Inhibition Rate (%) [1, 5]: 92.4%
- Absorbance [1, 5]: 0.013
- Bacterial Growth Inhibition Rate (%) [1, 6]: 88.8%
- Absorbance [1, 6]: 0.019
- Bacterial Growth Inhibition Rate (%) [2, 4]: 55.6%
- Absorbance [2, 4]: 0.059
- Bacterial Growth Inhibition Rate (%) [2, 5]: 91.7%
- Absorbance [2, 5]: 0.011
- Bacterial Growth Inhibition Rate (%) [2, 6]: 89.5%
- Absorbance [2, 6]: 0.014
- Deodorization rate (%) for Diacetyl [3, 7]: 79%
- Deodorization rate (%) for Dimethyl Disulfide [3, 7]: 65%
- Deodorization rate (%) for Dimethyl Trisulfide [3, 7]: 16%
- Deodorization rate (%) for Isovaleraldehyde [3, 7]: 87%
- Deodorization rate (%) for p-Cresol [3, 7]: 2%
- Deodorization rate (%) for Diacetyl [3, 8]: 86%
- Deodorization rate (%) for Dimethyl Disulfide [3, 8]: 76%
- Deodorization rate (%) for Dimethyl Trisulfide [3, 8]: 27%
- Deodorization rate (%) for Isovaleraldehyde [3, 8]: 92%
- Deodorization rate (%) for p-Cresol [3, 8]: 20%
- Deodorization rate (%) for Diacetyl [3, 9]: 91%
- Deodorization rate (%) for Dimethyl Disulfide [3, 9]: 84%
- Deodorization rate (%) for Dimethyl Trisulfide [3, 9]: 61%
- Deodorization rate (%) for Isovaleraldehyde [3, 9]: 94%
- Deodorization rate (%) for p-Cresol [3, 9]: 37%
- Deodorization rate (%) for Diacetyl [3, 10]: 92%
- Deodorization rate (%) for Dimethyl Disulfide [3, 10]: 88%
- Deodorization rate (%) for Dimethyl Trisulfide [3, 10]: 72%
- Deodorization rate (%) for Isovaleraldehyde [3, 10]: 95%
- Deodorization rate (%) for p-Cresol [3, 10]: 46%
- Deodorization rate (%) for Diacetyl [3, 11]: 93%
- Deodorization rate (%) for Dimethyl Disulfide [3, 11]: 88%
- Deodorization rate (%) for Dimethyl Trisulfide [3, 11]: 76%
- Deodorization rate (%) for Isovaleraldehyde [3, 11]: 95%
- Deodorization rate (%) for p-Cresol [3, 11]: 61%
